Measurements taken from patent publication US6638963B1, “Methods for treating circadian rhythm disorders” (Oregon Health and Science University, priority 1990, dated 2003).

How the values were obtained:
Type in all cases: in vivo, human
[1] = test system: dim light melatonin onset (DLMO); assay: Melatonin phase response curve trials, two doses of 0.25 mg two hours apart (Example 2); conditions: four days, nine subjects, 30 trials, time referenced to first capsule
Description: (§1) Prior to collection of human blood, subjects were kept in dim light for about 5 hours (usually between 6 p.m. and 11 p.m.). An intravenous line or heparin lock was inserted in a forearm vein and 5 mL of blood drawn every 30 minutes between 7 p.m. and 11 p.m. The blood samples were centrifuged for 5 minutes at 1000 g and 4° C., and the plasma aspirated into a silanized glass or plastic tube. Samples were assayed immediately or frozen for later analysis. Saliva samples can alternatively be collected and analyzed
To a 1 mL aliquot of such plasma was added 50 picograms of N-acetyl-5-methoxy(α,α,β,β-D4)tryptamine as a chromatographic control. […]
(§2) The amount of melatonin present in each sample was determined by gas chromatographic-mass spectrometric analysis. […]
Mass spectrographic analysis of the column eluant was then performed. Mass spectra were recorded using a Hewlett Packard 5989A mass spectrometer with an ETP Scientific electron multiplier using HP Chemstation software. The relative signals of melatonin and the added N-acetyl-5-methoxy(α,α,β,β-D4)tryptamine control were detected at m/e (mass/charge) ratios of 320 and 323, respectively. […]
Melatonin was administered to nine subjects as two doses of 0.25 mg, two hours apart, thereby simulating a sustained-release (SR) formulation. […] Phase shifts were calculated by subtracting the post-treatment DLMO from the pre-treatment DLMO. […]

[2] = test system: endogenous circadian pacemaker; assay: Dose effect of melatonin on shift of the endogenous circadian pacemaker; conditions: melatonin dosages from about 0.125 mg to about 0.5 mg
Excerpt: The present invention contemplates the administration of various doses of melatonin which promote quantitative shifts in an individual's endogenous circadian pacemaker. The administration of sufficient doses of melatonin is capable of shifting the endogenous circadian pacemaker, as well as the melatonin PRC, by an appropriate degree. […] The amount of melatonin administered to a human subject should be sufficient to achieve the desired circadian rhythm phase-shifting effect. In a preferred embodiment of this invention, a dosage of about 0.01 mg to about 100 mg, more preferably about 0.1 mg to about 10 mg, most preferably about 0.1 mg to about 1 mg, of exogenous melatonin is used to effect the desired change in phase of the circadian rhythm of endogenous melatonin production. For the purposes of this invention, the term “exogenously administered melatonin” encompasses various formulations of melatonin, melatonin agonists (that is, compounds that mimic melatonin's actions) and compounds that raise endogenous melatoriin levels. Therefore, whenever reference is made to increasing plasma melatonin levels due to administration of exogenous melatonin, this refers also to increasing plasma melatonin levels due to administration of a melatonin stimulant and increasing equivalent agonist levels due to administration of a melatonin agonist. […]

[3] = test system: patients with winter depression; assay: Treatment of patients with winter depression, SIGH-SAD depression ratings, melatonin versus placebo (Example 11); conditions: for SIGH-SAD change score from pre-treatment: 0.125 mg per capsule at about CT 8 and about CT 12, N=5, p<0.05 vs placebo
Description: Patients with winter depression were treated with either melatonin (N=5) or placebo (N=5). All subjects were screened prior to being admitted into the study and met the following criteria: 1) the DSM-IV criteria (American Psychiatric Association, 1994) for moderate to severe major depressive disorder (without psychotic episodes) or bipolar disorder (depressed or not otherwise specified) with a winter type seasonal pattern; 2) scored […] on the Structured Interview Guide for the Hamilton Depression Rating Scale Seasonal Affective Disorder Version (SIGH-SAD) (Williams et al., 1994, Structured Interview Guide for the Hamilton Depression Scale-Seasonal Effective Disorder Version (SIGH-SAD), New York: New York State Psychiatric Institute) with Hamilton Depression Scale (HAM-D) (Hamilton, 1967, Brit. J. Soc. Clin. Psychol. 6: 278-296)≦10 and an atypical score ≦5 ([…] et al., 1990, Neuropsychopharmacol. […] Prior to inclusion in the study, subjects were interviewed by a physician and also completed 7 a health and sleep screening questionnaire. Written informed consent was obtained for all participants. The study was a three-week, parallel-group design, consisting of a pre-treatment assessment followed by three treatment weeks. Subjects were randomly assigned to either a melatonin or placebo group and were counter balanced based on their initial depression scores (SIGH-SAD) and their reported awakening times. Each group received melatonin or placebo in two daily capsules at about CT 8 and about CT 12, estimated from each subject's initial reported awakening time (about CT 0). The dose of melatonin was 0.125 mg per capsule. For behavioral ratings, subjects were initially interviewed face-to-face using the 29-item Structured Interview Guide for the Hamilton Depression Rating Scale-Seasonal Affective Disorder version (SIGH-SAD). Two subsequent interviews were done weekly by telephone and the third and final interview was conducted in person. All interviews were conducted by a researcher blind to treatment conditions. For the three-week period, subjects completed a Likert daily rating form and a daily sleep diary. To specifically assess fatigue associated with the capsule, subjects also completed a Profile of Mood States (POMS) 30 minutes after ingestion of each capsule. In addition, pre-study and weekly expectations questionnaires were completed. Ten patients (9 females) with winter depression were admitted into the study. The mean age of the melatonin group was 37 (SD=13.6; range: 22-58) and the placebo group was 32.2 (SD=8.6; range: 22-42). The mean pre-treatment SIGH-SAD score for the placebo group was 29.4; the melatonin group mean was 29.2. The initial reported mean wake up time for the placebo group was 7:12 AM; the melatonin group mean was 7:20 AM. […]

[4] = test system: dim light melatonin onset (DLMO); assay: Melatonin phase response curve trials, single 0.5 mg immediate-release dose (Example 3)
Description: as §1
To a 1 mL aliquot of such plasma was added 50 picograms of N-acetyl-5-methoxy(α,α,β,β-D4)tryptamine as a chromatographic control. An equal volume of normal saline was added and the mixture gently shaken with 8 volumes of petroleum ether. The organic phase was removed, and melatonin and the added N-acetyl-5-methoxy(α,α,β,β-D4)tryptamine control extracted from the aqueous phase with 8 volumes of chloroform. The aqueous phase was then discarded, and the chloroform evaporated to dryness.
The dried extract containing melatonin and the added N-acetyl-5-methoxy(α,α,β,β-D4)tryptamine control was dissolved in 50 μL ethyl acetate. The melatonin contained in the plasma samples and the added N-acetyl-5-methoxy(α,α,β,β-D4)tryptamine control were then derivatized by the addition of 50 μL of pentafluoroproprionic acid anhydride and reacted at 70° C. for 10 minutes. These reaction products were then evaporated to dryness under nitrogen. The dried extract was partitioned between 0.5 mL acetonitrile and 1 mL hexane by vigorous mixing followed by centrifugation and removal of the hexane layer. This partitioning step was repeated twice more, except that the hexane was not removed after the final partitioning. […]
as §2
Mass spectrographic analysis of the column eluant was then performed. Mass spectra were recorded using a Hewlett Packard 5989A mass spectrometer with an ETP Scientific electron multiplier using HP Chemstation software. The relative signals of melatonin and the added N-acetyl-5-methoxy(α,α,β,β-D4)tryptamine control were detected at m/e (mass/charge) ratios of 320 and 323, respectively. The amount of melatonin present in any unknown sample can be determined by comparison of the ratio of the intensities of these signals to a standard curve, prepared as described using known amounts of melatonin and added N-acetyl-5-methoxy(α,α,β,β-D4)tryptamine control.
Melatonin was administered to five subjects as a single 0.5 mg (or immediate-release (IR)) dose. […] Dim light melatonin onset (DLMO) times were determined at the end of each week. Phase shifts were calculated from a comparison of the post-treatment DLMO to the pre-treatment DLMO. […]

[5] = both PRC studies (Examples 2 and 3)

## COc1ccc2[nH]cc(CCNC(C)=O)c2c1 [melatonin, N-acetyl-5-methoxytryptamine]
[1]
  circadian time of administration at which maximal phase advances occur: ~7.5 CT
[2]
  dose effect on shift of endogenous circadian pacemaker: linear dose effect
[3]; Week 1
  SIGH-SAD change score from pre-treatment: 15.4
[3]; Week 2
  SIGH-SAD change score from pre-treatment: 16.8
[3]; five subjects per group, one responder in placebo group, p=0.048, Fisher's Exact test
  responders (39% or greater decrease in SIGH-SAD ratings to a score of 21 or less): all five subjects responded
[3]; one-tailed unpaired t-test, p=0.05
  SIGH-SAD scores after two weeks of capsules, melatonin versus placebo: significant difference
[4]; [5]
  crossover point between advance and delay responses of the melatonin PRC: ~18 CT
  crossover point between delay and advance responses of the melatonin PRC: ~6 CT
[4]; single 0.5 mg IR dose, four days, five subjects, twelve trials each
  circadian time for maximal phase advances: ~11 CT
[4]; single 0.5 mg IR dose, same time as found in Example 2
  circadian time at which phase delays begin: ~6 CT
